From patent US20250019379A1, “NEW CRYSTAL FORM OF COMPOUND, AND PREPARATION METHOD THEREFOR AND USE THEREOF” (E-nitiate Biopharmaceuticals (Hangzhou) Co., Ltd, priority 2021, published 2025)

Assays:
[1] = Pharmacokinetic experiment; format: in vivo; settings: SD rats, single intragastric administration
Protocol: 12 SD rats were divided into two groups, with 6 rats in each group, half male and half female, and each was given a single intragastric administration; blood was collected through the fundus venous plexus at designated time points, and the plasma was separated and stored in a −80° C. refrigerator.
For the above plasma sample, after protein precipitation with acetonitrile, the supernatant was diluted with water and 5 μL was transferred to LC-MS/MS for detection.

[2] = Dynamic solubility in biological solvents at 37° C.; format: physicochemical
Protocol: (1) Preparation method of FaSSIF: a. Weigh 42 mg NaOH, 395 mg NaH2PO4·H2O and 619 mg NaCl in a 100 mL beaker, add 90 mL deionized water to dissolve: b. Adjust the pH to […]; Dilute to 100 mL with deionized water to obtain FaSSIF blank solvent: c. Weigh 224 mg of Simulated Intestinal Fluid (hereinafter referred to as SIF powder), add 50 mL of the above FaSSIF blank solvent, and stir until completely dissolved; use Dilute the FaSSIF blank solvent to 100 mL to prepare the solvent FaSSIF; d. Let it stand at room temperature for 2 hours before use.
(2) Preparation method of FeSSIF: a. Weigh 404 mg NaOH, 865 mg glacial acetic acid and 1189 mg NaCl in a 100 mL beaker, add 90 mL deionized water to dissolve: b. Adjust the pH to 5.0 with 1N NaOH or 1N HCl; Dilute to 100 mL with deionized water to obtain FeSSIF blank solvent; c. Weigh 1120 mg SIF powder and add 50 mL of the above FeSSIF blank solvent, stir until dissolved: dilute to 100 mL with FeSSIF blank solvent to obtain FeSSIF solvent d. Let it stand at room temperature before use to ensure a clear solution.
(3) Preparation method of SGF: a. Weigh 200 mg NaCl in a 100 mL beaker, add 90 mL deionized water to dissolve; b. Adjust the pH to 1.6 with 1N HCl; dilute to 100 mL with deionized water to obtain SGF Blank solvent; c. Weigh 6 mg SIF powder and add 50 mL of the above SGF blank solvent, stir until dissolved: dilute to 100 mL with SGF blank solvent to prepare the solvent SGF: d. Let it stand at room temperature before use to ensure a clear solution.
(100 rpm). Take 1.3 mL of the suspension (or clarified solution) respectively at 1, 4, and 24 hours, and centrifuge the suspension for 5 minutes. The solid obtained is used for crystal form detection (XRPD), and the supernatant/clarified solution is filtered for solubility testing and pH test.
Solubility data of the samples were collected using a high-performance liquid chromatograph equipped with an image diode array detector.

[3] = Suspension competition experiment; format: physicochemical; settings: compared with crystalline form O and crystalline form P; room temperature and 60° C.
Protocol: Place them at room temperature and 60° C. with magnetic stirring for about 1 hour respectively. […] Solids are used for XRPD testing.

[4] = Thermodynamic analysis experiment (heating, XRPD); format: physicochemical; settings: compared with crystalline form H and crystalline form S
Protocol: Crystalline form H and crystalline form S were heated to appropriate temperatures under N2 protection, and after cooling to room temperature, the XRPD of the solids was measured.

- bioavailability in the body [1]: high bioavailability
- Changes in Crystal form ([2]; FaSSIF, 37° C., 1 h): no change
- pH ([2]; FaSSIF, 37° C., 1 h): 6.41
- pH ([2]; FaSSIF, 37° C., 4 h): 6.49
- Changes in Crystal form ([2]; FaSSIF, 37° C., 24 h): no change
- pH ([2]; FaSSIF, 37° C., 24 h): 6.54
- Changes in Crystal form ([2]; FeSSIF, 37° C., 1 h): no change
- pH ([2]; FeSSIF, 37° C., 1 h): 4.92
- pH ([2]; FeSSIF, 37° C., 4 h): 4.95
- Changes in Crystal form ([2]; FeSSIF, 37° C., 24 h): no change
- pH ([2]; FeSSIF, 37° C., 24 h): 4.99
- Changes in Crystal form ([2]; SGF, 37° C., 1 h): no change
- pH ([2]; SGF, 37° C., 1 h): 2.92
- pH ([2]; SGF, 37° C., 4 h): 2.99
- Changes in Crystal form ([2]; SGF, 37° C., 24 h): no change
- pH ([2]; SGF, 37° C., 24 h): 2.95
- crystal form stability when suspended and stirred ([2]; SGF/FeSSIF/FeSSIF, 24 hours, 37° C.): stable
- solubility in three solvents (SGF/FaSSIF/FeSSIF), comparison ([2]; within 24 hours at 37° C.): greater than that of crystalline form Q
- stability in suspension competition [3]: more stable
- thermodynamic stability [4]: thermodynamically more stable
SMILES: C[C@@H](O)c1nc2cnc3[nH]ccc3c2n1N1CCC(CC#N)CC1 [Crystalline form A, (R)-2-(1-(2-(1-hydroxyethyl)imidazo[4,5-d]pyrrolo[2,3-b]pyridine-1(6H)-yl)piperidin-4-yl)acetonitrile]
